Consider five compounds from patent US20250250581A1, “HERBICIDE-RESISTANT POLYPEPTIDE AND APPLICATION THEREOF” (SHANDONG SHUNFENG BIOTECHNOLOGY CO.LTD., priority 2022, published 2025).

Assay [1] deals with resistant plant YX6 HIR1 knockout plant hir1 (YX6). The assay can be described thus: Herbicide spraying of plants, HIR1 knockout in YX6 background. It counts as in vivo, rice. As to conditions: 40 μM spray, two weeks later, LOC_Os02g09720 knockout in YX6 background. From the text:
(§1) To further confirm the relationship between gene LOC_Os02g09720 and the herbicide isoxaflutole, we designed two different sgRNA targets in the coding region of gene LOC_Os02g09720 and knocked out the gene using CRISPR/Cas9 in the wild-type Nipponbare rice and YX6 resistant rice backgrounds. After obtaining TO transgenic plants, the two target regions were sequenced, and homozygous knockout plants were selected and sprayed with herbicides together with wild-type plants and YX6 resistant plants. The concentration of isoxaflutole was set to 40 μM. The phenotype was observed two weeks later. […] We named this gene HIR1 (HPPD INHIBITOR RESISTANCE 1), and its encoded protein is HIR1 protein. The amino acid sequence is shown in SEQ ID No.1. The genotype of the wild-type Nipponbare plant is HIR1, and the knockout plant is hir1.

Assay [2] has as its system wild-type Nipponbare plants (HIR1). The assay can be described thus: Herbicide spraying of plants, wild-type Nipponbare. Type of assay: in vivo, rice.
From the text: (§2) In this study, the base editor mediates genetic transformation through Agrobacterium, and the recipient variety was Nipponbare (NIP). After obtaining TO transgenic plants, the genotype of the target site was identified by PCR and sequencing, and the mutant individuals were transplanted to the field and T1 generation seeds were harvested. In order to verify the resistance of the mutant to herbicides, the harvested T1 generation seeds were dehulled, disinfected, and then inoculated on ½ MS medium with different HPPD herbicides. We selected the herbicide isoxaflutole, and the final concentration was set to 400 nM, while the tolerance concentration of wild-type Nipponbare rice to isoxaflutole during the seed germination stage was about 100 nM. Seed germination and seedling growth status were observed and counted 10 days after inoculation. […] To further confirm its resistance, we transplanted the green seedlings of YX6 into the greenhouse and sprayed them with 100 μM isoxaflutole one month later. The tolerance concentration of wild-type Nipponbare rice to isoxaflutole during the seedling stage was about 40 μM.
as §1
(§3) In order to further determine the resistance strength of rice YX6 mutant (OE-HIR1), we set up three high concentration gradients of isoxaflutole to spray it (200 μM, 400 μM, 800 µM), with wild-type Nipponbare plants (HIR1) and wild-type Nipponbare HIR1 gene knockout plants (hir1) as controls. […] The tolerance range of rice YX6 mutant (OE-HIR1) to isoxaflutole may be higher, even reaching 1200-1500 μM, while the tolerance concentration of wild-type Nipponbare plants to isoxaflutole was about 40 μM, and its resistance is estimated to be increased by 30 times.
(§4) HPPD herbicides mainly include triketones, pyrazolones, isoxazolones, diketonitriles, and benzophenones. In order to determine whether the rice YX6 mutant (OE-HIR1) is resistant to other HPPD herbicides, we selected the herbicides: mesotrione, tembotrione, an unlisted quinotrione-methyl analog (Y13287), topramezone, and pyrasulfotole, and sprayed them with wild-type Nipponbare rice as the control.

Assay [3] relates to rice YX6 mutant (OE-HIR1). In words: Herbicide spraying of plants, YX6 mutant. It counts as in vivo. The settings on record: for rank order of resistance of the YX6 mutant (OE-HIR1) to different herbicides: comparison among herbicides sprayed.
From the text: as §2, §1, §3, §4

For assay [4], the system named is wild-type Nipponbare HIR1 knockout plant hir1 (NIP). The assay can be described thus: Herbicide spraying of plants, HIR1 knockout in wild-type background. The settings on record: 40 μM spray, two weeks later, LOC_Os02g09720 knockout in wild-type background. It counts as in vivo, rice.
From the text: as §1

The subject of assay [5] is wild-type Nipponbare rice. The assay can be described thus: Seed germination on ½ MS medium with isoxaflutole, wild-type Nipponbare. Type of assay: in vivo.
From the text: as §2

For assay [6], the system named is transgenic plants (ZmHIR1) in rice variety Xiushui 134. The assay can be described thus: Herbicide spraying of T0 transgenic seedlings overexpressing ZmHIR1. The settings on record: 50 mg/L (139 μM) spray. It counts as in vivo. Here is the method: (§5) Verifying the herbicide resistance of the above two genes (ZmHIR1 and SqHIR1): cloning these two genes, respectively, and overexpressing them in the rice variety Xiushui 134. The TO generation transgenic seedlings were sprayed with 50 mg/L (139 μM) herbicide isoxaflutole for resistance identification, and the results are shown in FIGS. 10-11.

The subject of assay [7] is transgenic plant numbered YX6 (T1 generation seeds). The assay can be described thus: Seed germination on ½ MS medium with isoxaflutole, YX6 T1 seeds. Type of assay: in vivo, rice. The settings on record: 400 nM in ½ MS medium, 10 days after inoculation.
From the text: as §2

Assay [8] has as its system wild-type (WT) rice plants, variety Xiushui 134. In words: Herbicide spraying for resistance identification, wild-type Xiushui 134. As to conditions: 50 mg/L (139 μM) spray. Type of assay: in vivo. Here is the method:
as §5

The test system of assay [9] is transgenic plants (SqHIR1) in rice variety Xiushui 134. The assay can be described thus: Herbicide spraying of T0 transgenic seedlings overexpressing SqHIR1. Type of assay: in vivo. The settings on record: 50 mg/L (139 μM) spray. Here is the method:
as §5

Setting [10] is: 400 μM spray, YX6 mutant (OE-HIR1).

Consider `CS(=O)(=O)c1cc(C(F)(F)F)ccc1C(=O)c1cnoc1C1CC1` [isoxaflutole], for which the phenotype after spraying result was “bleached, withered, and died gradually” in assay [1]; “bleaching and wilting, but still survived” in assay [2] (40 μM spray, two weeks later, wild-type plants); “completely bleached and withered” in assay [2] (100 μM spray, after two weeks, wild-type Nipponbare); “not affected and grew normally” in assay [3] (40 μM spray, two weeks later, YX6 plants); “not affected at all” in [3] (100 μM spray, after two weeks, YX6); “could still grow normally” in assay [3] (800 μM spray, YX6 mutant (OE-HIR1)). The phenotype after spraying result was “bleached, withered, and died gradually” in assay [4]; “basically remain green, with normal plant height and good growth status” in [6]; “become dwarfed, yellow, and dry” in assay [8]; “basically remained green, with normal plant height and good growth status” in assay [9]. The “tolerance concentration during the seedling stage” value in assay [2] (wild-type Nipponbare, spraying) is on record as “about 40 μM”. Besides, the “resistance increase versus wild-type Nipponbare” value in assay [3] (YX6 mutant (OE-HIR1) vs wild type tolerance about 40 μM, estimated) was about 30 times. The tolerance range in [3] (YX6 mutant (OE-HIR1), 'may be higher, even reaching') was in the range of 1200 to 1500 µM. Further, the “seed germination and seedling growth status” value in [5] (400 nM in ½ MS medium, 10 days after inoculation, wild-type Nipponbare) is “obvious bleaching symptoms of phytotoxicity”; in [7], “seedlings remained green normally”. For the same compound, the “tolerance concentration during the seed germination stage” value in [5] (wild-type Nipponbare rice, seed germination stage) was “about 100 nM”.
`Cc1nn(C)c(O)c1C(=O)c1ccc(C(F)(F)F)cc1S(C)(=O)=O` [pyrasulfotole]: the phenotype after spraying result in assay [2] (400 μM spray, wild-type plants) is “had all bleached and suffered certain phytotoxicity”; in assay [3] (setting [10]), “had no phytotoxicity and could grow normally without bleaching”. For the same compound, the “rank order of resistance of the YX6 mutant (OE-HIR1) to different herbicides” value (“rank order … to different herbicides” for short) in assay [3] is reported as “sulfone pyrazone>topramezone≈tembotrione>mesotrione≈quinotrione-methyl analog”.
As for `CS(=O)(=O)c1ccc(C(=O)C2C(=O)CCCC2=O)c([N+](=O)[O-])c1` [mesotrione], the phenotype after spraying result is “had all bleached and suffered certain phytotoxicity” in assay [2] (400 μM spray, wild-type plants); “had no phytotoxicity and could grow normally without bleaching” in assay [3] (setting [10]). Further, the “rank order … to different herbicides” value in [3] is “sulfone pyrazone>topramezone≈tembotrione>mesotrione≈quinotrione-methyl analog”.
On to `CS(=O)(=O)c1ccc(C(=O)C2C(=O)CCCC2=O)c(Cl)c1COCC(F)(F)F` [tembotrione], for which the phenotype after spraying result in assay [2] (400 μM spray, wild-type plants) is “had all bleached and suffered certain phytotoxicity”; in assay [3] (setting [10]), “had no phytotoxicity and could grow normally without bleaching”. In addition, the “rank order … to different herbicides” value in [3] was “sulfone pyrazone>topramezone≈tembotrione>mesotrione≈quinotrione-methyl analog”.
Regarding `Cc1c(C(=O)c2cnn(C)c2O)ccc(S(C)(=O)=O)c1C1=NOCC1` [topramezone], the phenotype after spraying result was “had all bleached and suffered certain phytotoxicity” in assay [2] (400 μM spray, wild-type plants); “had no phytotoxicity and could grow normally without bleaching” in assay [3] (setting [10]). Besides, in assay [3], the “rank order … to different herbicides” value is recorded as “sulfone pyrazone>topramezone≈tembotrione>mesotrione≈quinotrione-methyl analog”.
